Experimental data reported in patent US20140256015A1, “CAGED COMPOUND WHICH CAN BE PHOTOACTIVATED SELECTIVELY FOR CELL TYPES” (Toho University, priority 2013, published 2014).

What was measured:
β-Gal = β-Gal (Escherichia coli, UniProt P00722); experiment: Conversion of Gal-Bhcmoc-propargyl to Bhcmoc-propargyl in the presence of β-Gal, followed by HPLC; type: biochemical; settings: 15 μM compound, β-Gal 0.25 ng/μL, 0.1 M phosphate buffer pH 7.3, 37° C., after 1 hour
Experimental: To 0.1 M phosphate buffer (pH 7.3) containing Gal-Bhcmoc-propargyl (final concentration of 15 μM), mercaptoethanol (0.11 M), and magnesium chloride (1 mM), β-Gal was added to a final concentration of 0.25 ng/μL. While the reaction solution was kept at 37° C., the reaction progress was followed by HPLC (see Table 2 for analytical conditions).

[1] = Photocleaving by 405 nm photoirradiation, monitored by C18 reverse phase HPLC; type: physicochemical; settings: 10^−5 M KMOPS solution (0.1% DMSO, pH 7.3), irradiation 0 to 30 s (Bhcmoc-propargyl) or 0 to 300 s (Gal-Bhcmoc-propargyl)
Text: The 10^−5 M KMOPS solution (0.1% DMSO, pH 7.3) of Gal-Bhcmoc-propargyl or Bhcmoc-propargyl was irradiated with light with 405 nm. The reaction progress was monitored over photoirradiation time by C18 reverse phase HPLC.

[2] = UV spectrum (absorption wavelengths); type: physicochemical; settings: 10^−5 M KMOPS solution (0.1% DMSO, pH 7.3)
Experimental: UV spectra were measured for the 10^−5 M KMOPS solution (0.1% DMSO, pH 7.3) of Gal-Bhcmoc-propargyl and the 10^−5 M KMOPS solution (0.1% DMSO, pH 7.3) of Bhcmoc-propargyl.

Sequence of β-Gal (P00722 2-1024): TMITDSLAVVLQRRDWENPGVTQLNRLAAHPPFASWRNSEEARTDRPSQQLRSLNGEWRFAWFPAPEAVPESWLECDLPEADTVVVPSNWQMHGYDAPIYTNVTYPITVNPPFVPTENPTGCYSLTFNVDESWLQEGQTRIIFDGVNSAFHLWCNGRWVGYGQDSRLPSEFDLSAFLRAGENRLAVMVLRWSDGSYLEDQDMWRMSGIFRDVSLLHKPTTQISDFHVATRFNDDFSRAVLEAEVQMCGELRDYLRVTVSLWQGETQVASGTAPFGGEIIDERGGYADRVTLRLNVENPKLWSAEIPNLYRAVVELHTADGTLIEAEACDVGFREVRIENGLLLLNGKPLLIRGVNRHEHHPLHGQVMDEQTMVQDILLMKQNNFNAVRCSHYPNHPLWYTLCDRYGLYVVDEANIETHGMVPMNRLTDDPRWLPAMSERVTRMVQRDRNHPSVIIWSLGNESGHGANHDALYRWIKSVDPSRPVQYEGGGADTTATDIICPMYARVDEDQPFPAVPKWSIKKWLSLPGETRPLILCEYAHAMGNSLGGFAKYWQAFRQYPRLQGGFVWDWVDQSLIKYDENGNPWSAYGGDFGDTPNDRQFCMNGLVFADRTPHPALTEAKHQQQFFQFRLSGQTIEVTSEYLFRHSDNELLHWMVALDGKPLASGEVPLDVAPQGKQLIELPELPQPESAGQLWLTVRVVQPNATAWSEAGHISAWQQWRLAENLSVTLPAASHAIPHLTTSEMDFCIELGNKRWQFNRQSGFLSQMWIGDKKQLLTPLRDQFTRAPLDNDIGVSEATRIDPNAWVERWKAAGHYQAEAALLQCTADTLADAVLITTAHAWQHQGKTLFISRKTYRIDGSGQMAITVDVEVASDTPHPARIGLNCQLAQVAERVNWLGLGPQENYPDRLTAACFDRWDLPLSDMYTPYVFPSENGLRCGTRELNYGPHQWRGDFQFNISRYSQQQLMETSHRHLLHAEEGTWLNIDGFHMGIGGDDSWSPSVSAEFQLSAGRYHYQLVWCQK

C#CCNC(=O)OCc1cc(=O)oc2cc(O[C@@H]3O[C@H](CO)[C@H](O)[C@H](O)[C@H]3O)c(Br)cc12 [Gal-Bhcmoc-propargyl]
conversion to Bhcmoc-propargyl (Bhc group) by β-Gal (β-Gal): completely converted | photocleaving (decrease of compound) on 405-nm photoirradiation [1]: no decrease was confirmed

C#CCNC(=O)OCc1cc(=O)oc2cc(O)c(Br)cc12 [Bhcmoc-propargyl, (6-bromo-7-hydroxycoumarin-4-yl)methoxycarbonylpropargylamide]
εmax [2]: 17400 M⁻¹ cm⁻¹ | λmax [2]: 369 nm | photocleaving (decrease of compound) on 405-nm photoirradiation [1]: decreases in Bhcmoc-propargyl and increases in the photocleaved product could be confirmed
